The values that follow come from patent US6632829B2, “Sulfonamides and derivatives thereof that modulate the activity of endothelin” (Texas Biotechnology Corp., priority 1996, dated 2003).

Usually pIC50 stands for the IC50 on a negative log10 scale, so that one unit is a factor of ten. What is called Papp is the rate of passage across a membrane or cell layer, normalised by area and donor concentration. The melting point is the temperature of the solid-liquid transition. One may read the pEC50 as −log10 of the EC50, conventionally taken in molar units.

For one data set, the target named is T1, human ETA receptors (Homo sapiens, UniProt P25101).
T1 construct: endogenous in cells; host or cells: TE 671 cells (ATCC HTB 139), membrane preparation
T1 sequence (P25101 21-427): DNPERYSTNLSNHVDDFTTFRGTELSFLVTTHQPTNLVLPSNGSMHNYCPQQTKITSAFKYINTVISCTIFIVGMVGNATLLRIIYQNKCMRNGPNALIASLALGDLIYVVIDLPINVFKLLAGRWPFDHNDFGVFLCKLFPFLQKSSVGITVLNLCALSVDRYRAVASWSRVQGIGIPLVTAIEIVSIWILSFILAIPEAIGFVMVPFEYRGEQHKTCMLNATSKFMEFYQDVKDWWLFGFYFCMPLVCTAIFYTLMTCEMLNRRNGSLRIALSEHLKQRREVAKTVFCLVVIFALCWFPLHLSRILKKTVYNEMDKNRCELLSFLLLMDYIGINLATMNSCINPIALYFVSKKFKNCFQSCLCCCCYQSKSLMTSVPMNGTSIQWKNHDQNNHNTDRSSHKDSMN
Nature of the data set: Endothelin binding inhibition, Binding Test #1: competition with 125I-ET-1 for ETA receptors on TE 671 cell membranes. The settings on record: incubation at 24° C. (values marked †).

The next data set deals with T2, human ETB receptor (Homo sapiens, UniProt P24530).
T2 construct: expressed in transfected cells; host or cells: COS7 cells
T2 sequence (P24530 27-442): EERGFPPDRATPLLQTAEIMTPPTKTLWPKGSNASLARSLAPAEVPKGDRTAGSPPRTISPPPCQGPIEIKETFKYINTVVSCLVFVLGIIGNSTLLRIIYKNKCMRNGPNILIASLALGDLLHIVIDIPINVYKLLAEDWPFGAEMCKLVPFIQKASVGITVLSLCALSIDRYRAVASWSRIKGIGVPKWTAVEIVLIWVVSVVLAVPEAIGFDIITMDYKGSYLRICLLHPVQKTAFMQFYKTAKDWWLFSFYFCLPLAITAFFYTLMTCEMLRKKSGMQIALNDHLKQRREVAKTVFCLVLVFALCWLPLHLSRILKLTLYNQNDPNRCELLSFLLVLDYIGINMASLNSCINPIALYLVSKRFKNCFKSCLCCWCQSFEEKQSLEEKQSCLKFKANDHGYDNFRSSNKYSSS
Put plainly: Endothelin binding inhibition, Binding Test #2: competition with 125I-ET-1 for ETB receptors on transfected COS7 cell membranes. The following applies: incubation at 24° C. (values marked †). In short, it runs like this:
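Membranes from COS7 cells transfected with human ETB receptor, prepared in HEPES pH 7.4 with aprotinin, MnCl2/DNase treatment at 37° C for 30 min. Test compounds compete with 125I-labeled ET-1 for receptor binding; membrane used at 1 μg/50 μL binding buffer.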

Data set [1] is described as follows: Oral half-life and peak plasma levels. It counts as in vivo. The following applies: for POt½ in Rat: oral; for Peak Plasma Levels: rat, in vivo. An excerpt:
As used herein, bioavailability refers to the rate and extent of absorption. Methods for determining bioavailability are well known to those of skill in the art. For example, bioavailability of any of the compounds described herein can be determined empirically by administration of the compound to an animal, followed by taking blood samples over time and measuring the blood concentration of the compound. In vivo half life (t1/2) is defined as the time it takes for the concentration of the compound in the blood to be reduced by one-half. Estimations of the area under the curve for intravenous administration can be used to estimate the area under the curve for oral administration, ylelding bioavailability data. See, e.g., Milo Gibal (1991) Biopharmaceutics and Pharmacology, 4th edition (Lea and Sediger).
Table 2 lists oral half-life, bioavailability, and in vivo activity of selected exemplary compounds. The in vivo activity was measured in a pulmonary hypertension model and is a measure of the activity of the compounds at selected dosages.

A further data set in a line: Papp. The data set is classed as in vitro ADME. The following applies: not told.
Data set [2] relates to Pulmonary Hypertension model. Nature of the data set: Pulmonary Hypertension model. The arrangement: key: ++: effective at 5 mg/kg; −: no effect at 5 mg/kg; +: effective at 15 mg/kg. The data set is classed as in vivo, rat. As for the experimental part:
As used herein, efficacy refers to the maximal effect that can be produced by a compound. Efficacy can be determined by methods known to those of skill in the art. For example, it can be determined by the properties of the compound and its receptor-effector system and is reflected in the plateau of the concentration-effect curve. In vivo efficacy refers to efficacy which is determined in an animal model. For example, in vivo efficacy of the compounds described herein can be determined by hypoxia-induced pulmonary hypertension in rat. See, e.g., DiCarlo et al. (1995) Am. J. Physiol. 269:[…]-[…]. Table 2 lists oral half-life, bioavailability, and in vivo activity of selected exemplary compounds. The in vivo activity was measured in a pulmonary hypertension model and is a measure of the activity of the compounds at selected dosages.

The next data set relates to isolated vascular strips. The following applies: contractile agent; cited from earlier work.
For a further data set, the target named is ETA receptor. The settings on record: cited from earlier work.
Another data set relates to ETB receptors. The following applies: at concentrations up to 100 μM; cited from earlier work.

pEC50, pIC50: −log10 of the molar value. Read-outs that look alike come from different tables or passages of the source.

For `Cc1cc(C)c(NC(=O)c2sccc2S(=O)(=O)Nc2onc(C)c2C)c(C)c1CC#N` [N-(3,4-dimethyl-5-isoxazolyl)-2-(3-cyanomethyl-2,4,6-trimethylphenylaminocarbonyl)thiophene-3-sulfonamide], the negative logarithm of the IC50 (pIC50) on human ETA receptors is 8.81. Also, at human ETB receptor, the pIC50 was 4.64. Also, in data set [1], the “POt½ in Rat” value came to 1.8 h and the “Peak Plasma Levels” value turned out to be 10.9 µg/mL.

Consider `COC(=O)Cc1c(C)cc(C)c(NC(=O)c2sccc2S(=O)(=O)Nc2onc(C)c2Cl)c1C` [N-(4-chloro-3-methyl-5-isoxazolyl)-2-(3-methoxycarbonylmethyl-2,4,6-trimethylphenylaminocarbonyl)thiophene-3-sulfonamide], for which the pIC50 at human ETA receptors was 9.00; at human ETB receptor, 3.94. For the same compound, the Papp in the data set “Papp” stood at 1.69 ×10⁻⁶ cm/s.

For the compound `Cc1cc(C)c(NC(=O)c2sccc2S(=O)(=O)Nc2onc(C)c2Cl)c(C)c1CC(=O)O` [N-(4-chloro-3-methyl-5-isoxazolyl)-2-(3-carboxymethyl-2,4,6-trimethylphenylaminocarbonyl)thiophene-3-sulfonamide], the figures for the negative-log IC50 (pIC50) at human ETA receptors and at human ETB receptor were 8.75 and 3.97, respectively. Besides, the apparent permeability coefficient (Papp) in the data set “Papp” was 1.1 ×10⁻⁶ cm/s.

As for `Cc1noc(NS(=O)(=O)c2ccsc2C(=O)Nc2c(C)c(C)c(C)c(C)c2C)c1Cl` [N-(4-chloro-3-methyl-5-isoxazolyl)-2-(pentamethylphenylaminocarbonyl)thiophene-3-sulfonamide], the melting point was in the range of 196 to 198 °C. Besides, on human ETA receptors, the pIC50 was 7.53. In addition, the pIC50 at human ETB receptor is 4.51.

Take `Cc1cc(C)c(NC(=O)c2sccc2S(=O)(=O)Nc2onc(C)c2Cl)c(C)c1CC#N` [N-(4-chloro-3-methyl-5-isoxazolyl)-2-(3-cyanomethyl-2,4,6-trimethylphenylaminocarbonyl)thiophene-3-sulfonamide]: the negative logarithm of the IC50 (pIC50) on human ETA receptors is 8.93; at human ETB receptor, 4.41. The compound also yielded an apparent permeability coefficient (Papp) in “Papp” of 1.78 ×10⁻⁶ cm/s. Moreover, in [1], the “POt½ in Rat” value was 3.4 h. Moreover, the “Peak Plasma Levels” value in data set [1] was 40.2 µg/mL. Moreover, the “in vivo Efficacy” value in data set [2] was “++”.

For `Cc1cc(C)c(NC(=O)c2sccc2S(=O)(=O)Nc2noc(C)c2Cl)c(C)c1CC#N` [N-(4-chloro-5-methyl-3-isoxazolyl)-2-(3-cyanomethyl-2,4,6-trimethylphenylaminocarbonyl)thiophene-3-sulfonamide], the pIC50 on human ETA receptors was 9.06. The compound further showed a negative logarithm of the IC50 (pIC50) at human ETB receptor of 5.12. Besides, in data set [1], the “POt½ in Rat” value amounted to 25.6 h and the “Peak Plasma Levels” value was 13 µg/mL. Further, the “in vivo Efficacy” value in data set [2] was “−”.

With `Cc1cc2c(cc1CC(=O)c1sccc1S(=O)(=O)Nc1onc(C)c1Cl)OCO2` [N-(4-chloro-3-methyl-5-isoxazolyl)-2-[2-methyl-4,5-(methylenedioxy)phenylacetyl]thiophene-3-sulfonamide], the pIC50 is 7.83 on human ETA receptors and 4.28 on human ETB receptor. Also, the Papp in “Papp” came out at 2.32 ×10⁻⁶ cm/s. Also, the “POt½ in Rat” value in [1] was found to be 4.1 h. For the same compound, the “Peak Plasma Levels” value in data set [1] turned out to be 173 µg/mL. For the same compound, in [2], the “in vivo Efficacy” value was “++”.

Regarding `COc1cc(C#N)c(NC(=O)c2sccc2S(=O)(=O)Nc2onc(C)c2Cl)c(OC)c1OC` [N-(4-chloro-3-methyl-5-isoxazolyl)-2-[(2,3,4-trimethoxy-6-cyano)phenylaminocarbonyl]thiophene-3-sulfonamide], the pIC50 on human ETA receptors was 9.62; on human ETB receptor, 5.16. This compound gave an apparent permeability (Papp) in “Papp” of 0.58 ×10⁻⁶ cm/s.

Consider `CC(=O)OCc1c(C)cc(C)c(NC(=O)c2sccc2S(=O)(=O)Nc2onc(C)c2Cl)c1C` [N-(4-chloro-3-methyl-5-isoxazolyl)-2-(3-acetoxymethyl-2,4,6-trimethylphenylaminocarbonyl)thiophene-3-sulfonamide], for which the negative logarithm of the IC50 (pIC50) at human ETA receptors is 9.07; on human ETB receptor it was 3.14. Besides, the Papp in “Papp” was determined as 1.46 ×10⁻⁶ cm/s.

Regarding `Cc1cc(C)c(NS(C)(=O)=O)c(C)c1NC(=O)c1sccc1S(=O)(=O)Nc1onc(C)c1Cl` [N-(4-chloro-3-methyl-5-isoxazolyl)-2-(3-methanesulfonylamino-2,4,6-trimethylphenylaminocarbonyl)thiophene-3-sulfonamide], the negative-log IC50 (pIC50) at human ETA receptors was 8.79; at human ETB receptor it was 4.17. Further, in data set [1], the “POt½ in Rat” value was 5.9 h. The “Peak Plasma Levels” value in [1] came to 2.6 µg/mL.

`Cc1cc(C)c(S(N)(=O)=O)c(C)c1NC(=O)c1sccc1S(=O)(=O)Nc1onc(C)c1Cl` [N-(4-chloro-3-methyl-5-isoxazolyl)-2-(3-sulfamoyl-2,4,6-trimethylphenylaminocarbonyl)thiophene-3-sulfonamide] showed a pIC50 at human ETA receptors of 9.04. The negative logarithm of the IC50 (pIC50) at human ETB receptor is 4.59. Further, in [1], the “POt½ in Rat” value came out at 3.4 h and the “Peak Plasma Levels” value was 2.8 µg/mL.

For the compound `Cc1cc(C)c(NC(=O)c2sccc2S(=O)(=O)Nc2onc(C)c2Cl)c(C)c1CO` [N-(4-chloro-3-methyl-5-isoxazolyl)-2-(3-hydroxymethyl-2,4,6-trimethylphenylaminocarbonyl)thiophene-3-sulfonamide], the pIC50 at human ETA receptors was 9.17. This compound had a negative-log IC50 (pIC50) at human ETB receptor of 4.13. The compound also had a Papp in “Papp” of 1.56 ×10⁻⁶ cm/s. Also, in [1], the “POt½ in Rat” value is 1.5 h and the “Peak Plasma Levels” value stood at 3 µg/mL.

`Cc1cc(C)c(NC(=O)c2sccc2S(=O)(=O)Nc2onc(C)c2Cl)c(C)c1C#N` [N-(4-chloro-3-methyl-5-isoxazolyl)-2-(3-cyano-2,4,6-trimethylphenylaminocarbonyl)thiophene-3-sulfonamide] had a negative logarithm of the IC50 (pIC50) at human ETA receptors of 8.82. In addition, the pIC50 at human ETB receptor is 4.24. Further, in data set [1], the “POt½ in Rat” value is 3.9 h and the “Peak Plasma Levels” value is 20 µg/mL. Further, the “in vivo Efficacy” value in data set [2] is given as “++”.

endothelin-1: the negative logarithm of the EC50 (pEC50) in the data set with isolated vascular strips is 9.40.

Regarding “cyclo(D-Glu-L-Ala-allo-D-Ile-L-Leu-D-Trp) [BE-18257B]”, the pIC50 on ETA receptor (aortic smooth muscle) is 5.85; at ETA receptor (cultured aortic smooth muscle cells), 6.30; on ETA receptor (ventricle membranes), 6.10. Moreover, the inhibition of binding result with ETB receptors is “fails to inhibit binding”.
